Data set [1] in a line: Solubility in water at pH 7.4. In kind it is physicochemical. The following applies: aqueous buffer, pH 7.4, r.t. On the procedure: The compounds have been assessed in respect of their solubility in water, at a pH of 7.4 at room temeprature. In general the solubility of compounds of formula (I) is in a range of at least 50 μg/mL solvent, more preferably of at least 100 μg/mL solvent.

Another data set concerns the target JNK3 (Homo sapiens, UniProt P53779). The data set is described as follows: JNK3 in vitro assay (c-jun phosphorylation, 33P incorporation, SPA). The data set is classed as biochemical. The following applies: recombinant pre-activated GST-JNK3, biotinylated GST-c-Jun, 2 μM 33γ-ATP. On the procedure: The phosphorylation of c-jun by JNK2 or JNK3 may be followed by monitoring the incorporation of ^33P into c-jun following the protocol below. The inhibitory activity of the compounds according to formula I, in respect of c-jun phosphorylation through JNK, is determined by calculating the phosphorylation activity of a JNK in the presence or absence of the test compounds according to formula I.
JNK3 and/or -2 assays are performed in 96 well MTT plates: incubation of 0.5 μg of recombinant, pre-activated GST-JNK3 or GST-JNK2 with 1 μg of recombinant, biotinylated GST-c-Jun and 2 μM ^33γ-ATP (2 nCi/μl), in the presence or absence of compounds according to formula I and in a reaction volume of 50 μl containing 50 mM Tris-HCl, pH 8.0; 10 mM MgCl2; 1 mM Dithiothreitol, and 100 μM NaVO4. The incubation is performed for 120 min. at R.T and stopped upon addition of 200 μl of a solution containing 250 μg of Streptavidine-coated SPA beads (Amersham, Inc.)*, 5 mM EDTA, 0.1% Triton X-100 and 50 μM ATP, in phosphate saline buffer. After incubation for 60 minutes at RT, beads are sedimented by centrifugation at 1500×g for 5 minutes, resuspended in 200 μl of PBS containing 5 mM EDTA, 0.1% Triton X-100 and 50 μM ATP and the radioactivity measured in a scintillation β counter, following sedimentation of the beads as described above. By replacing biotinylated GST-c Jun with biotinylated GST-1ATF2 or biotinylated myelin basic protein, this assay may also be used to measure inhibition of pre-activated p38 and ERK MAP Kinases, respectively.

In brackets after ≈: the same amount, converted by molar mass. Where only a bound is given, the exact number is not on record here.

Chain of JNK3 (P53779 whole entry): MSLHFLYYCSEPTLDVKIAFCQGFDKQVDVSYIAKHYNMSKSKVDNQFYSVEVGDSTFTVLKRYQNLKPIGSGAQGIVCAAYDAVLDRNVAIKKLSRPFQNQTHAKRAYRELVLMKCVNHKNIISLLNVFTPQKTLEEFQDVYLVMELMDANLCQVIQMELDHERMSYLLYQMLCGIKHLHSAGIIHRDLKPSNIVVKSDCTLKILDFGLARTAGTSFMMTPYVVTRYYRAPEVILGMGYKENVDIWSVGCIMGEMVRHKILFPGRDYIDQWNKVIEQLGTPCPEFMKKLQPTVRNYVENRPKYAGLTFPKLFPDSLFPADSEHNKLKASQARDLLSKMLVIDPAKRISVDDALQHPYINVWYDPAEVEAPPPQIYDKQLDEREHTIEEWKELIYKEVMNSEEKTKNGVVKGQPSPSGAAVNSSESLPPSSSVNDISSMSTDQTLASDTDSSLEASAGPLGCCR

In turn, `COc1cccc(C(=O)NCc2cc(C(=O)O)c(S(=O)(=O)N3CCC(Nc4cccc(S(=O)(=O)C(F)(F)F)c4)CC3)s2)c1` [Example 1, 5-{[(3-methoxybenzoyl)amino]methyl}-2-[(4-{3-[(trifluoromethyl) -sulfonyl]anilino}piperidin-1-yl)sulfonyl]thiophene-3-carboxylic acid] returned a solubility in data set [1] of 180 µg/mL (≈ 272 µM). Further, the IC50 at JNK3 is less than 100 nM.

With `COc1cccc(C(=O)NCc2cc(C(=O)O)c(S(=O)(=O)N3CCC(NCc4ccc(C(F)(F)F)cc4)CC3)s2)c1` [Example 4, 5-{[(3-methoxybenzoyl)amino]methyl}-2-[(4-{[4-(trifluoromethyl)benzyl]amino}-1-piperidinyl)sulfonyl]-3-thiophenecarboxylic acid], the IC50 at JNK3 was less than 100 nM.

As for “N-({4-(hydrazinocarbonyl)-5-[(4-{3-[(trifluoro-methyl)sulfonyl]anilino}piperidin-1-yl)sulfonyl]-thien-2-yl}methyl)-3-methoxybenzamide [Example 6]”, on JNK3, the half-maximal inhibitory concentration (IC50) was less than 100 nM.

The record behind these values is patent publication US20040077632A1, “Pharmaceutically active hydrophilic sulfonamide derivatives as inhibitors of protein junkinases” (priority 2000, published 2004).
